Values of other authors, collected in patent US11111202B2, “Production of salts of 4-hydroxybutyrate using biobased raw materials” (CJ Cheiljedang Corporation, priority 2012, dated 2021).

Assays:
[1] = after oral administration
[2] = or even longer if large doses have been consumed

SMILES: O=C(O)CCCO [GHB, γ-Hydroxybutyric acid]
- time of peak plasma concentration [1]: 20 to 60 min
- duration of the effects of GHB [2]: 1.5 to 3 h
